These are literature values, as cited in patent publication US9511020B2, “Controlled release corticosteroid compositions and methods for the treatment of otic disorders” (priority 2008, dated 2016).

The conditions of series [1]: for Glucocorticoid potency: relative potency.
For series [2] the following is noted: relative potency.

For `C[C@]12C=CC(=O)C=C1CC[C@@H]1[C@@H]2[C@@H](O)C[C@@]2(C)[C@H]1CC[C@]2(O)C(=O)CO` [prednisolone], the Glucocorticoid potency in series [1] is on record as 1.7. The “potency relative to endogenous cortisol” value in series [1] (times the potency of endogenous cortisol) is reported as 4-5 times. Also, the Mineralocorticoid potency in series [2] is 0.013.
`C=C1C[C@H]2[C@@H]3CCC4=CC(=O)C=C[C@]4(C)[C@H]3[C@@H](O)C[C@]2(C)[C@@]1(O)C(=O)CO` [prednylidene]: the Glucocorticoid potency in series [1] is 182. Further, the Mineralocorticoid potency in series [2] is reported as 0.0011.
Take `C[C@]12CCC(=O)C=C1CC[C@@H]1[C@@H]2[C@@H](O)C[C@]2(C=O)[C@@H](C(=O)CO)CC[C@@H]12` [aldosterone]: in series [1], the Glucocorticoid potency is given as 0.07. Moreover, the Mineralocorticoid potency in series [2] is recorded as 1.0.
Take `C[C@]12CCC(=O)C=C1CC[C@@H]1[C@@H]2[C@@H](O)C[C@@]2(C)[C@H]1CC[C@]2(O)C(=O)CO` [cortisol]: the Glucocorticoid potency in series [1] is 1. In series [2], the Mineralocorticoid potency is recorded as 0.054.
Take `C[C@]12C=CC(=O)C=C1CC[C@H]1[C@@H]3C[C@@H](O)[C@](O)(C(=O)CO)[C@@]3(C)C[C@H](O)[C@@]12F` [triamcinolone]: in series [1], the Glucocorticoid potency was 0.35. In addition, the Mineralocorticoid potency in series [2] is given as 0.0002.
